Data taken from the supplement of paper PMC10307832.

Legend:
Experiment in all cases: relative viability (nuclei count vs DMSO), 5 days (fraction); higher = more cells survive
[1] = compound: C1=CC=C(C(=C1)C2=CC=C(C=C2)C3=CSC4=C3C(=C(C(=O)N4)C#N)O)O + CCNC(=O)c1noc(-c2cc(C(C)C)c(O)cc2O)c1-c1ccc(CN2CCOCC2)cc1 [Luminespib] (partner 0.01 µM)
Method in brief: (§1)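 Relative viability is defined as nuclei in treated wells over nuclei in vehicle wells. Duplicate plates were run and medians reported. Lung cancer cell lines in 1536-well plates were dosed by pin tool one day after seeding, with one drug or with a fixed anchor-drug dose plus five library-drug doses (not always all listed) in √10 steps, and nuclei were counted after 5 days.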

[2] = compound: C1=CC=C(C(=C1)C2=CC=C(C=C2)C3=CSC4=C3C(=C(C(=O)N4)C#N)O)O + C[C@@H](Oc1cc(-c2cnn(C3CCNCC3)c2)cnc1N)c1c(Cl)ccc(F)c1Cl [Crizotinib] (partner 1 µM)
Method in brief: as §1

[3] = compound: CC1=CN2C(=O)C=C(N=C2C(=C1)C(C)NC3=CC=CC=C3)N4CCOCC4 [TGX 221] + COc1cccc2cc(-c3nc([C@H]4CC[C@H](C(=O)O)CC4)n4ncnc(N)c34)[nH]c12 [OSI-027] (partner 0.5 µM)
Method in brief: as §1

[4] = compound: O=C(CCCCCCNC(=O)c1cnc(N(c2ccccc2)c2ccccc2)nc1)NO [Ricolinostat] + O=C(CCCCCCC(=O)Nc1ccccc1)NO [Vorinostat] (partner 1 µM)
Method in brief: as §1

Cell Line	relative viability ([1]; first compound 0.08 µM)	relative viability ([1]; first compound 0.253 µM)	relative viability ([1]; first compound 0.8 µM)	relative viability ([1]; first compound 2.53 µM)	relative viability ([1]; first compound 8 µM)	relative viability ([2]; first compound 0.08 µM)	relative viability ([2]; first compound 0.253 µM)	relative viability ([2]; first compound 0.8 µM)	relative viability ([2]; first compound 2.53 µM)	relative viability ([2]; first compound 8 µM)	relative viability ([3]; first compound 0.08 µM)	relative viability ([3]; first compound 0.253 µM)	relative viability ([3]; first compound 0.8 µM)	relative viability ([3]; first compound 2.53 µM)	relative viability ([3]; first compound 8 µM)	relative viability ([4]; first compound 0.08 µM)	relative viability ([4]; first compound 0.253 µM)	relative viability ([4]; first compound 0.8 µM)	relative viability ([4]; first compound 2.53 µM)
NCI-H2405	0.723	0.855	0.675	0.604	0.567	0.787	0.844	0.855	0.812	0.787	0.609	0.627	0.664	0.658	0.589	0.854	1.02	0.379	0.767
NCI-H1993	0.625	0.715	0.7	0.763	0.646	0.794	0.922	0.816	0.776	0.741	0.504	0.575	0.579	0.559	0.533	0.551	0.825	0.693	
LU99A	0.245	0.234	0.295	0.261	0.242	0.52	0.524	0.598	0.616	0.527	0.275	0.313	0.328	0.346	0.293	0.513	0.473	0.462	0.326
ChaGo-K-1	0.706	0.628	0.684	0.597	0.604	1.06	1.43	1.31	1.17	0.817	0.529	0.547	0.581	0.474	0.64	0.717	0.762	0.73	0.523
NCI-H1355	0.542	0.681	0.727	0.61	0.533	1.2	1.16	0.991	1.03	0.841	0.377	0.427	0.385	0.314	0.331	0.64	0.627	0.619	0.533
NCI-H838	0.276	0.333	0.242	0.197	0.329	0.639	1.08	0.892	0.794	0.732	0.399	0.326	0.326	0.365	0.355	0.725	0.689	0.582	0.315
SK-MES-1	0.766	0.822	0.763	0.622	0.633	1.05	1.05	0.905	1.05	0.951	0.552	0.53	0.592	0.532	0.473	0.912	1.03	1.07	0.932
NCI-H460	0.0357	0.0366	0.0362	0.0279	0.036		1.03	0.955	1.03	0.27	0.666	0.566	0.713	0.56	0.504	0.594	0.677	0.573	0.194
NCI-H358	0.304	0.331	0.293	0.603	0.221	0.59	0.478	0.718	0.516	0.553	0.716	0.719	0.756	0.739	0.583	0.599	0.633	0.482	0.34
